Common to all, as to assay: DTP human tumour cell line panel, 48 h
Assay [1] concerns HOP-62 NSCLC.
The subject of assay [2] is SF-295 CNS.
The subject of assay [3] is SF-539 CNS.
Assay [4] deals with HOP-92 NSCLC.
For assay [5], the system named is MCF7 breast.
In assay [6] the test system is KM12 colon.
The subject of assay [7] is SN12C renal.
For assay [8], the system named is NCI-H522 lung.
Assay [9] deals with UACC-62 melanoma.
In assay [10] the test system is RPMI-8226 leukemia.

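All cell lines were grown in 96-well plates and treated with compound for 48 hours. GI50: concentration for 50% inhibition of growth. TGI is the concentration that stops growth completely.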

One may read the GI50 as the concentration giving 50% growth inhibition. One may read the TGI as the concentration giving total growth inhibition. Low values mean greater sensitivity of the cells, high ones lower sensitivity of the cells.

As for `CC(C)[C@H](O)C(=O)N[C@@H](C)C(=O)N[C@@H]1C(=O)N(C)CCc2ccccc21`, the GI50 in assay [1], in [2], in assay [3], in [4], in assay [5] and in assay [6] was more than 100 µM in each case. Also, the GI50 in assay [7] was more than 100 µM; in assay [8], more than 100000 nM; in assay [9], more than 100 µM; in assay [10], more than 100 µM. Further, the TGI in [1], in assay [2], in assay [3], in assay [4], in [5] and in [6] was more than 100 µM each time. The TGI in assay [7], in assay [8], in assay [9] and in [10] was more than 100 µM throughout.

On to `CCc1ccc2c(c1)C(=O)c1c-2n(CCCN=[N+]=[N-])c(=O)c2cc([N+](=O)[O-])ccc12`, for which the GI50 in assay [1], in [2], in assay [3], in assay [4], in [5] and in assay [6] was more than 50 µM each time. For the same compound, the GI50 was more than 50 µM in [7], more than 50000 nM in assay [8], more than 50 µM in [9] and more than 50 µM in [10]. For the same compound, the TGI in assay [1], in assay [2], in assay [3], in [4], in [5] and in [6] was more than 50 µM in each case. In addition, the TGI in assay [7], in assay [8], in [9] and in assay [10] was more than 50 µM throughout.

In the case of `Nc1cc(Br)c(-c2nnc(CCC(=O)c3nc4ccccc4[nH]3)o2)c(Br)c1`, the GI50 is 23.7 µM in [1]; 9.78 µM in assay [2]; 17.3 µM in assay [3]; 0.499 µM in assay [4]; 3.06 µM in assay [5]; 3.71 µM in assay [6]. Also, the GI50 in [7] was 29.5 µM; in assay [8], 2900 nM; in [9] it was 5.37 µM; in [10] it was 4.21 µM. Further, the TGI in assay [1] is more than 100 µM; in [2], 35.6 µM; in [3], 60.8 µM; in assay [4] it was 19.9 µM; in assay [5], more than 100 µM; in [6], 18 µM. The TGI was more than 100 µM in assay [7], 16.9 µM in [8], more than 100 µM in [9] and more than 100 µM in assay [10].

Take `CC(C)c1[nH]nc2c1N=C(c1ccccc1Cl)c1cc([N+](=O)[O-])ccc1N2`: the GI50 in assay [1] was 6.58 µM; in assay [2], 8.52 µM; in assay [3], 7.27 µM; in assay [4] it was 4 µM; in [5], 4.53 µM; in assay [6] it was 1.79 µM. For the same compound, the GI50 in [7] was 8.17 µM; in assay [8], 2290 nM; in assay [9] it was 4.18 µM; in assay [10], 8.85 µM. Besides, the TGI in assay [1] was more than 25 µM; in assay [2], more than 25 µM; in [3], more than 22 µM; in assay [4], 12.6 µM; in assay [5] it was 24.3 µM; in assay [6], 6.31 µM. Further, the TGI in [7] is more than 25 µM; in [8], more than 18.3 µM; in [9], more than 23.5 µM; in assay [10] it was more than 22.6 µM.

For the compound `COc1ccc(C(CC(=O)c2ccc3c(c2)OCO3)c2c(O)c3ccccc3oc2=O)cc1OC` (stereo unspecified), the TGI in [1], in [2], in [3], in assay [4], in [5] and in assay [6] was more than 100 µM throughout. The TGI in assay [7], in assay [8], in [9] and in assay [10] was more than 100 µM each time.

With `C=CC(=O)N1CN(C(=O)C=C)CN(C(=O)C=C)C1`, the GI50 in assay [1] was 12.3 µM; in [3], 2.98 µM; in assay [4] it was 3.56 µM; in assay [5] it was 3.65 µM; in assay [6] it was 18.5 µM; in [7] it was 20.7 µM. Moreover, the GI50 is 1650 nM in assay [8], 3.49 µM in assay [9] and 2.29 µM in assay [10]. The TGI was 48.1 µM in assay [1]; 48.3 µM in assay [3]; 13 µM in [4]; 15.5 µM in [5]; 38.6 µM in assay [6]; 51.6 µM in assay [7]. In addition, the results for the TGI in [8], in assay [9] and in assay [10] were 3.51 µM, 12 µM and 6.76 µM, respectively.

As for `Cn1c(=O)c2c(nc(C(=N)SCC(=O)O)n2C)n(C)c1=O`, the TGI in assay [1], in assay [2], in assay [3], in [4], in [5] and in assay [6] was more than 100 µM in each case. The TGI in assay [7], in assay [8], in [9] and in assay [10] was more than 100 µM each time.

For the compound `CC(C)(C)[Si](C)(C)OC1[C@@H](CNC(=O)NC(=O)CCl)O[C@@H](n2cnc3c(N)ncnc32)[C@H]1O[Si](C)(C)C(C)(C)C` (stereo partly specified), the GI50 in assay [1] is 0.842 µM; in assay [3], 0.944 µM; in assay [4] it was 0.885 µM; in assay [5] it was 0.724 µM; in assay [6], 0.897 µM; in [7], 0.821 µM. Besides, the values for the GI50 in assay [8], in assay [9] and in assay [10] were 718 nM, 0.877 µM and 0.805 µM, respectively. Further, the TGI came to 1.69 µM in assay [1]; 1.67 µM in assay [3]; 1.86 µM in assay [4]; 1.51 µM in assay [5]; 1.98 µM in assay [6]; 1.88 µM in assay [7]. Further, the TGI was determined as 1.61 µM in assay [8], 1.74 µM in [9] and 2.34 µM in [10].

The values are drawn from PubChem BioAssay (NCI).
